Experimental data from US6586402B1, “LH-RH peptide analogues, their uses and pharmaceutical compositions containing them” (Laboratoire Theramex, priority 1997, dated 2003).
“Also recorded” adds a separate entry of the source. Where two headings read alike, the source gives them in different places. Square brackets hold non-standard residues; d marks the D form. Peptide text beside a SMILES is read from it. * marks the point of attachment. dPhe(4-Cl) = N[C@H](Cc1ccc(Cl)cc1)C(=O)O; d2Nal = N[C@H](Cc1ccc2ccccc2c1)C(=O)O; d(hCit) = NC(=O)NCCCC[C@@H](N)C(=O)O; Lys(iPr) = CC(C)NCCCC[C@H](N)C(=O)O; dCit = NC(=O)NCCC[C@@H](N)C(=O)O; tBuAla = CC(C)(C)C[C@H](N)C(=O)O; d3Pal = N[C@H](Cc1cccnc1)C(=O)O; pGlu = O=C1CC[C@@H](C(=O)O)N1; Nicotinoyl = O=C(c1cccnc1)*

How the values were obtained:
LH-RH receptors [1] = target: T1, LH-RH receptors (Rattus norvegicus, UniProt P30969); test: biochemical
T1 sequence (P30969 1-327): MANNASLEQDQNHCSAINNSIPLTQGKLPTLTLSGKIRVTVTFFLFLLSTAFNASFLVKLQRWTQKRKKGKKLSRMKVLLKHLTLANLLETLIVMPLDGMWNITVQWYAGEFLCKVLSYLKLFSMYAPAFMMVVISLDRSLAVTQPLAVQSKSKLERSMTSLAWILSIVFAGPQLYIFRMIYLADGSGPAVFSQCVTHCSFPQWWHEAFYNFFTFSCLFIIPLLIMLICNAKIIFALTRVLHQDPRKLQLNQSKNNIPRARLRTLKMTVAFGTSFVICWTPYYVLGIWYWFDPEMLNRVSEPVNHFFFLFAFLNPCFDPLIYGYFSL

LH-RH receptors [2] = target: T1, LH-RH receptors; test: Stimulation of testosterone secretion in adult male rats after subcutaneous injection (agonist activity in vivo); set-up: exert an agonist activity upon the LH-RH receptors in vivo; from tissue; host or cells: whole animal, adult male Sprague-Dawley rats; species or system Sprague-Dawley rats; conditions: for agonistic potency in words: comment on Tables 2 and 3; for Total plasma testosterone: Table 2, 10 ng/kg subcutaneous in PBS, blood two hours later, male Sprague-Dawley rats, vehicle 2.7 ± 0.3
Procedure: The peptides according to the general formula (IIa) exert an agonist activity upon the LH-RH receptors in vivo, resulting in the stimulation of LH secretion by the pituitary, which, in males, stimulates the secretion of testosterone by the testis.
Two hours later, blood samples were drawn for total plasma testosterone determination by direct radioimmunoassay (Immunotech).
At this intermediate dose of 10 ng/kg, several examples with Npg^7 or Ada^7 in place of Leu^7 according to the invention were screened for agonistic activity (Tables 2 and 3). When available from Bachem (France) or Sigma (France), the corresponding standard agonist with Leu^7 was tested for comparison.

LH-RH receptors [3] = target: T1, LH-RH receptors

SMILES	Ki (LH-RH receptors [1]) [nM]	Total plasma testosterone (LH-RH receptors [2]) [nmol/L]	% of inhibition of ovulation (LH-RH receptors [3]; 0.25 μg/rat s.c.) [%]	% of inhibition of ovulation (LH-RH receptors [3]; 1 μg/rat s.c.) [%]	also measured
CC(C)(C)C[C@H](NC(=O)[C@@H](Cc1ccccc1)NC(=O)[C@H](Cc1ccc(O)cc1)NC(=O)[C@H](CO)NC(=O)[C@H](Cc1c[nH]c2ccccc12)NC(=O)[C@H](Cc1c[nH]cn1)NC(=O)[C@@H]1CCC(=O)N1)C(=O)N[C@@H](CCCNC(=N)N)C(=O)N1CCC[C@H]1C(=O)NCC(N)=O [Example 9, pGlu-His-Trp-Ser-Tyr-D-Phe-Npg-Arg-Pro-Gly-NH2] ([pGlu]HWSY[dF][tBuAla]RPG-NH2)	2.34	30.9 ± 3.6	–	–	agonistic potency in words (LH-RH receptors [2]; 10 ng/kg s.c.): range of potency similar to that of leuprorelin or tryptorelin
CC(=O)N[C@H](Cc1ccc2ccccc2c1)C(=O)N[C@H](Cc1ccc(Cl)cc1)C(=O)N[C@H](Cc1cccnc1)C(=O)N[C@@H](CO)C(=O)N[C@@H](Cc1ccc(O)cc1)C(=O)N[C@H](CCCNC(N)=O)C(=O)N[C@@H](CC(C)(C)C)C(=O)N[C@@H](CCCCNC(C)C)C(=O)N1CCC[C@H]1C(=O)N[C@H](C)C(N)=O [Example 17, AcD-Nal-D-pClPhe-D-Pal-Ser-Tyr-D-Cit-Npg-IprLys-Pro-D-Ala-NH2] (Ac-[d2Nal][dPhe(4-Cl)][d3Pal]SY[dCit][tBuAla][Lys(iPr)]P[dA]-NH2)	0.191	–	80	100	Number of ovulating females/total number of treated females (LH-RH receptors [3]; 0.25 μg/rat s.c.): 1/5; % of inhibition of ovulation (LH-RH receptors [3]; 0.5 μg/rat s.c.): 43%; Number of ovulating females/total number of treated females (LH-RH receptors [3]; 0.5 μg/rat s.c.): 4/7; % of inhibition of ovulation (LH-RH receptors [3]; 0.75 μg/rat s.c.): 100%; Number of ovulating females/total number of treated females (LH-RH receptors [3]; 0.75 μg/rat s.c.): 0/7; Number of ovulating females/total number of treated females (LH-RH receptors [3]; 1 μg/rat s.c.): 0/12; antiovulatory activity in words (LH-RH receptors [3]; 1 μg/rat s.c.): maximal or sub-maximal activity; dose relation of the inhibition of ovulation, in words (LH-RH receptors [3]; dose range studied, s.c.): especially active, but its effects were not related to the dose
CC(=O)N[C@H](Cc1ccc2ccccc2c1)C(=O)N[C@H](Cc1ccc(Cl)cc1)C(=O)N[C@H](Cc1cccnc1)C(=O)N[C@@H](CO)C(=O)N[C@@H](Cc1ccc(O)cc1)C(=O)N[C@H](CCCNC(N)=O)C(=O)N[C@@H](CC(C)(C)C)C(=O)N[C@@H](CCCNC(=N)N)C(=O)N1CCC[C@H]1C(=O)N[C@H](C)C(N)=O [Example 16, AcD-Nal-D-pClPhe-D-Pal-Ser-Tyr-D-Cit-Npg-Arg-Pro-D-Ala-NH2] (Ac-[d2Nal][dPhe(4-Cl)][d3Pal]SY[dCit][tBuAla]RP[dA]-NH2)	0.0676	–	20	100	Number of ovulating females/total number of treated females (LH-RH receptors [3]; 0.25 μg/rat s.c.): 4/5; Number of ovulating females/total number of treated females (LH-RH receptors [3]; 1 μg/rat s.c.): 0/5; antiovulatory activity in words (LH-RH receptors [3]; 1 μg/rat s.c.): maximal or sub-maximal activity
CCNC(=O)[C@@H]1CCCN1C(=O)[C@H](CCCNC(=N)N)NC(=O)[C@H](CC(C)(C)C)NC(=O)[C@@H](CC(C)C)NC(=O)[C@H](Cc1ccc(O)cc1)NC(=O)[C@H](CO)NC(=O)[C@H](Cc1c[nH]c2ccccc12)NC(=O)[C@H](Cc1c[nH]cn1)NC(=O)[C@@H]1CCC(=O)N1 [Example 6, pGlu-His-Trp-Ser-Tyr-D-Leu-Npg-Arg-Pro-NEt]	0.468	48.6 ± 4.3	–	–	activity in stimulating testosterone secretion relative to the Leu^7 counterpart (LH-RH receptors [2]; 10 ng/kg s.c.): a little more than twice as active as leuprorelin; agonistic potency in words (LH-RH receptors [2]; 10 ng/kg s.c.): Npg^7 led to more potent agonists than Ada^7; also recorded: more potent LH-RH agonists than current therapeutic LH-RH analogues
CC(=O)N[C@H](Cc1ccc2ccccc2c1)C(=O)N[C@H](Cc1ccc(Cl)cc1)C(=O)N[C@H](Cc1cccnc1)C(=O)N[C@@H](CO)C(=O)N[C@@H](CCCCNC(=O)c1cccnc1)C(=O)N[C@H](CCCCNC(=O)c1cccnc1)C(=O)N[C@@H](CC(C)(C)C)C(=O)N[C@@H](CCCCNC(C)C)C(=O)N1CCC[C@H]1C(=O)N[C@H](C)C(N)=O [Example 15, AcD-Nal-D-pClPhe-D-Pal-Ser-NicLys-D-NicLys-Npg-IprLys-Pro-D-Ala-NH2] (Ac-[d2Nal][dPhe(4-Cl)][d3Pal]SK(Nicotinoyl)[dK](Nicotinoyl)[tBuAla][Lys(iPr)]P[dA]-NH2)	0.589	–	60	80	% of inhibition of ovulation (LH-RH receptors [3]; 0.1 μg/rat s.c.): 0%; % of inhibition of ovulation (LH-RH receptors [3]; 0.5 μg/rat s.c.): 100%
CCNC(=O)[C@@H]1CCCN1C(=O)[C@H](CCCNC(=N)N)NC(=O)[C@H](CC(C)(C)C)NC(=O)[C@@H](Cc1c[nH]c2ccccc12)NC(=O)[C@H](Cc1ccc(O)cc1)NC(=O)[C@H](CO)NC(=O)[C@H](Cc1c[nH]c2ccccc12)NC(=O)[C@H](Cc1c[nH]cn1)NC(=O)[C@@H]1CCC(=O)N1 [Example 12, pGlu-His-Trp-Ser-Tyr-D-Trp-Npg-Arg-Pro-NEt]	0.162	20.5 ± 5.2	–	–	–
CC(=O)N[C@H](Cc1ccc2ccccc2c1)C(=O)N[C@H](Cc1ccc(Cl)cc1)C(=O)N[C@H](Cc1cccnc1)C(=O)N[C@@H](CO)C(=O)N[C@@H](CCCCNC(=O)c1cccnc1)C(=O)N[C@H](CCCCNC(=O)c1cccnc1)C(=O)N[C@@H](CC(C)C)C(=O)N[C@@H](CCCCNC(C)C)C(=O)N1CCC[C@H]1C(=O)N[C@H](C)C(N)=O [Antide, reference compound] (Ac-[d2Nal][dPhe(4-Cl)][d3Pal]SK(Nicotinoyl)[dK](Nicotinoyl)L[Lys(iPr)]P[dA]-NH2)	0.692	–	–	69	% of inhibition of ovulation (LH-RH receptors [3]; 0.5 μg/rat s.c.): 20%; % of inhibition of ovulation (LH-RH receptors [3]; 2.5 μg/rat s.c.): 67%; % of inhibition of ovulation (LH-RH receptors [3]; 5 μg/rat s.c.): 100%; % of inhibition of ovulation (LH-RH receptors [3]; 10 μg/rat s.c.): 100%
CC(C)(C)C[C@H](NC(=O)[C@@H](Cc1ccc2ccccc2c1)NC(=O)[C@H](Cc1ccc(O)cc1)NC(=O)[C@H](CO)NC(=O)[C@H](Cc1c[nH]c2ccccc12)NC(=O)[C@H](Cc1c[nH]cn1)NC(=O)[C@@H]1CCC(=O)N1)C(=O)N[C@@H](CCCNC(=N)N)C(=O)N1CCC[C@H]1C(=O)NCC(N)=O [Example 13, pGlu-His-Trp-Ser-Tyr-D-Nal-Npg-Arg-Pro-Gly-NH2] ([pGlu]HWSY[d2Nal][tBuAla]RPG-NH2)	1.07	22.9 ± 4.2	–	–	agonistic potency in words (LH-RH receptors [2]; 10 ng/kg s.c.): range of potency similar to that of leuprorelin or tryptorelin
CC(=O)N[C@H](Cc1ccc2ccccc2c1)C(=O)N[C@H](Cc1ccc(Cl)cc1)C(=O)N[C@H](Cc1cccnc1)C(=O)N[C@@H](CO)C(=O)N[C@@H](Cc1ccc(O)cc1)C(=O)N[C@H](CCCCNC(N)=O)C(=O)N[C@@H](CC(C)(C)C)C(=O)N[C@@H](CCCCNC(C)C)C(=O)N1CCC[C@H]1C(=O)N[C@H](C)C(N)=O [Example 18, AcD-Nal-D-pClPhe-D-Pal-Ser-Tyr-D-HCit-Npg-IprLys-Pro-D-Ala-NH2] (Ac-[d2Nal][dPhe(4-Cl)][d3Pal]SY[d(hCit)][tBuAla][Lys(iPr)]P[dA]-NH2)	0.0851	–	20	80	–
CC(=O)N[C@H](Cc1ccc2ccccc2c1)C(=O)N[C@H](Cc1ccc(Cl)cc1)C(=O)N[C@H](Cc1cccnc1)C(=O)N[C@@H](CO)C(=O)N[C@@H](Cc1ccc(O)cc1)C(=O)N[C@H](CCCCNC(N)=O)C(=O)N[C@@H](CC(C)(C)C)C(=O)N[C@@H](CCCNC(=N)N)C(=O)N1CCC[C@H]1C(=O)N[C@H](C)C(N)=O [Example 19, AcD-Nal-D-pClPhe-D-Pal-Ser-Tyr-D-HCit-Npg-Arg-Pro-D-Ala-NH2] (Ac-[d2Nal][dPhe(4-Cl)][d3Pal]SY[d(hCit)][tBuAla]RP[dA]-NH2)	0.0776	–	40	100	–
CCNC(=O)[C@@H]1CCCN1C(=O)[C@H](CCCNC(=N)N)NC(=O)[C@H](CC(C)(C)C)NC(=O)[C@@H](C)NC(=O)[C@H](Cc1ccc(O)cc1)NC(=O)[C@H](CO)NC(=O)[C@H](Cc1c[nH]c2ccccc12)NC(=O)[C@H](Cc1c[nH]cn1)NC(=O)[C@@H]1CCC(=O)N1 [Example 4, pGlu-His-Trp-Ser-Tyr-D-Ala-Npg-Arg-Pro-NEt]	0.0977	33.8 ± 5.8	–	–	–
C[C@@H](NC(=O)[C@H](Cc1ccc(O)cc1)NC(=O)[C@H](CO)NC(=O)[C@H](Cc1c[nH]c2ccccc12)NC(=O)[C@H](Cc1c[nH]cn1)NC(=O)[C@@H]1CCC(=O)N1)C(=O)N[C@@H](CC(C)(C)C)C(=O)N[C@@H](CCCNC(=N)N)C(=O)N1CCC[C@H]1C(=O)NCC(N)=O [Example 3, pGlu-His-Trp-Ser-Tyr-D-Ala-Npg-Arg-Pro-Gly-NH2] ([pGlu]HWSY[dA][tBuAla]RPG-NH2)	0.269	16.7 ± 1.9	–	–	–
CCNC(=O)[C@@H]1CCCN1C(=O)[C@H](CCCNC(=N)N)NC(=O)[C@H](CC(C)(C)C)NC(=O)[C@@H](Cc1ccccc1)NC(=O)[C@H](Cc1ccc(O)cc1)NC(=O)[C@H](CO)NC(=O)[C@H](Cc1c[nH]c2ccccc12)NC(=O)[C@H](Cc1c[nH]cn1)NC(=O)[C@@H]1CCC(=O)N1 [Example 10, pGlu-His-Trp-Ser-Tyr-D-Phe-Npg-Arg-Pro-NEt]	0.229	23.5 ± 4.0	–	–	–
